Where two headings read alike, the source gives them in different places.
Key:
HIV = conditions: Anderson 2012; cited from earlier work
[1] = Cohort 2: single dose of Truvada in healthy subjects, TFV clearance in plasma and urine over 7 days (LC-MS/MS); type: in vivo, human
Description: (§1) 3 cohort studies were conducted to assess a system for detection of the active metabolite tenofovir (TFV) of the prodrug nucleotide reverse transcriptase inhibitor (NRTI) tenofovir disoproxil fumarate (TDF). Cohort 1: a cross sectional study of 10 HIV positive subjects with undetectable HIV viral loads on a TDF-based regimen; Cohort 2: a single dose study of Truvada in 10 healthy subjects to evaluate TFV clearance in plasma and urine over 7 days; Cohort 3: a 16 week study of 10 HIV negative subjects receiving daily PrEP to evaluate concordance between plasma and urine over time.
A semi-quantitative liquid chromatography-tandem mass spectrometry (LC-MS/MS) urine assay was developed for detection of TFV with high sensitivity/specificity. […] To evaluate the qualitative relationship of urine TFV levels to plasma levels, the levels of TFV in the urine and plasma from Cohort 1 was evaluated. […] In addition, the TFV concentration was 3-4 logs higher in urine than plasma (FIG. 2). In cohort 2, TFV was detected for >7 days in urine and 2-4 days in plasma after a single dose of Truvada™ (FIG. 3). […] The urine assay was 2 logs more sensitive than serum over 7 days (FIG. 3).
A semi-quantitative liquid chromatography-tandem mass spectrometry (LC-MS/MS) urine assay with high sensitivity and specificity for TFV allowed us to determine TFV concentrations in log categories between <[…] to >10,000 ng/mL. Following protein precipitation (0.1 mL human plasma or urine or diluted urine sample) using 100% acetonitrile with 0.1% formic acid, containing deuterated internal standard (2H6-tenofovir, 50 ng/mL), the analytes were separated using gradient mobile phase on a reverse phase C18 column and analyzed by MS/MS (AB Sciex API4000). The multiple reaction monitoring of m/z 288.3 to 176.3 for tenofovir and m/z 294.3 to 182.2 for 2H6-tenofovir was used for analysis. […] Flow rate was 0.7 ml/min and total chromatographic run-time was 3.0 minutes/sample.
Standards (10, 100, 1000 and 10,000 ng/mL in human plasma), blanks (double blank and internal standard blank) and unknown plasma and urine samples were thawed to room temperature. One hundred μL of all standards and blanks were put into appropriate wells on a 96 well plate. Diluted unknown urine samples (95 μL blank plasma +5 μL of unknown urine samples, 20-fold dilution) or undiluted plasma samples were mixed with 400 μL of IS solution in a 96 well plate. The plate was vortexed for 30 seconds at high speed and centrifuged for 30 minutes at 4000 rpm. Supernatant was transferred to a fresh 96 well plate and a 10 μL aliquot was injected for LC-MS/MS analysis from autosampler. […] When the concentration of TFV in urine samples exceeded 1,000 ng/mL, samples were diluted 50-fold with blank urine and reanalyzed.

HIV-1 = conditions: cited from earlier work
[2] = in vivo; cited from earlier work
[3] = in vivo; cited from earlier work; remark: listed apart in the source
[4] = human, in vivo
Description: as §1
(§2) A semi-quantitative liquid chromatography-tandem mass spectrometry (LC-MS/MS) urine assay was developed for detection of TFV with high sensitivity/specificity. […] To evaluate the qualitative relationship of urine TFV levels to plasma levels, the levels of TFV in the urine and plasma from Cohort 1 was evaluated. […] In addition, the TFV concentration was 3-4 logs higher in urine than plasma (FIG. 2). In cohort 2, TFV was detected for >7 days in urine and 2-4 days in plasma after a single dose of Truvada™ (FIG. 3). […]
(§3) A semi-quantitative liquid chromatography-tandem mass spectrometry (LC-MS/MS) urine assay with high sensitivity and specificity for TFV allowed us to determine TFV concentrations in log categories between <10 ng/L to >10,000 ng/mL. […]

[5] = Cohort 3: 16 week study of HIV negative subjects on daily PrEP, TFV in plasma and urine (LC-MS/MS); type: in vivo, human; conditions: Cohort 3, daily PrEP
Description: as §1, §2, §3

CC(Cn1cnc2c(N)ncnc21)OCP(=O)(O)OP(=O)(O)OP(=O)(O)O (stereo in doubt) [tenofovir-diphosphate]
intracellular concentration associated with a 90% reduction in HIV acquisition relative to the placebo arm (HIV): 16 fmol per million peripheral blood mononuclear cells (PBMCs)

C[C@H](Cn1cnc2c(N)ncnc21)OCP(=O)(O)O [TFV, Tenofovir]
time TFV detected in plasma ([1]; after a single dose of Truvada): 2 to 4 days | time TFV detected in urine ([1]; after a single dose of Truvada): > 7 days | urine TFV clearance pattern ([1]; after a single dose of Truvada, over 7 days): cleared in a log-linear fashion | window of medication usage reflected by TFV detection in urine ([1]; after oral TDF/FTC ingestion, preliminary data): one to at least seven days | HIV-1 risk reduction corresponding to intracellular tenofovir concentration (HIV-1; 2 doses per week): 76% | HIV-1 risk reduction corresponding to intracellular tenofovir concentration (HIV-1; 4 doses per week): 96% | HIV-1 risk reduction corresponding to intracellular tenofovir concentration (HIV-1; 7 doses per week): 99% | window of exposure reflected by single plasma concentrations [2]: 2 to 3 days | intracellular half-life [3]: 150 h | plasma half-life [3]: 17 h | TFV concentration higher in urine than plasma [4]: 3-4 logs | plasma samples with TFV detected [5]: 74% | urine samples with TFV detected [5]: 93%

From patent US20200200735A9, “SYSTEM AND METHOD FOR DETECTING THERAPEUTIC AGENTS TO MONITOR ADHERENCE TO A TREATMENT REGIMEN” (UrSure, Inc., priority 2016, published 2020)
